Where two headings read alike, the source gives them in different places.
What was measured:
[1] = tested on: p130; experiment: Fluorescence localization of p130 in nuclei during TPA treatment; format: cell-based, human; conditions: TPA 25 nM, after 12 h
Description: (§1) During this TPA treatment (25 nM), when E2F4, p130 and LIV21 were studied (green fluorescence) in the nuclei labelled (DNA) with propidium iodide (red fluorescence), the following were observed: […]

[2] = tested on: cells of benign tumors; conditions: background statement; cited from earlier work
[3] = tested on: E2F4; experiment: Fluorescence localization of E2F4 in nuclei during TPA treatment; format: cell-based, human; conditions: TPA 25 nM
Description: as §1

[4] = tested on: protein kinases C (PKCs); conditions: MCF-7 cells, background statement; cited from earlier work
[5] = tested on: MCF-7 line; conditions: cited from earlier work
[6] = biological target: T1, PKCε (Homo sapiens, UniProt Q02156); experiment: Western blotting of PKCε expression as a function of the duration of TPA treatment; format: cell-based; conditions: MCF-7 cells
T1 construct: endogenous in cells; host or cells: MCF-7
T1 sequence (Q02156 1-737): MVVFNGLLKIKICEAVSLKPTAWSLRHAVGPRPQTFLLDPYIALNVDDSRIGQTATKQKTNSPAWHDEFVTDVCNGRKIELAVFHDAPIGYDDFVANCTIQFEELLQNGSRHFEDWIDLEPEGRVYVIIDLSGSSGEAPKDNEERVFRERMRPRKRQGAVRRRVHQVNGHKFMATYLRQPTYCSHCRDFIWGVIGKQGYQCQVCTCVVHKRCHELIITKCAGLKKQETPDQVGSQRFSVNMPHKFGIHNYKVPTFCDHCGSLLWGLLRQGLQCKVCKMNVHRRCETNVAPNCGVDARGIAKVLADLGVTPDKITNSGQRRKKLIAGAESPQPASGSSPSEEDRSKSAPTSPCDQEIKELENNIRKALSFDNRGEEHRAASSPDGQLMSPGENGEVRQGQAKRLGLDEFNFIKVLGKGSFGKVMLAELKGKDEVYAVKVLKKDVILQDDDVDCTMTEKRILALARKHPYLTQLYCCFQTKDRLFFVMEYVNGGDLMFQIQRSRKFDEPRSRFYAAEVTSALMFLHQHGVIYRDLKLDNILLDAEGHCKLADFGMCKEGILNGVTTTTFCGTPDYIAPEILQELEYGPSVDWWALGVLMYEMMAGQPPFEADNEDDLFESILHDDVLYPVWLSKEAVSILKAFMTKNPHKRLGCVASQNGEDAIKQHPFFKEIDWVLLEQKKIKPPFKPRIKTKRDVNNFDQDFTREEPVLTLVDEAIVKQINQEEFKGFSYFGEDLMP
Description: (§2) Western blotting study: Given that the protein sequence of LIV21 has putative PKCε phosphorylation sites, including two specific for PKCε, the inventor tested the variation in the expression of this PKC as a function of the duration of TPA treatment. […] The expression of PKCzeta (PKCζ) is used as an internal control since it is not sensitive to TPA.

[7] = tested on: LIV21; conditions: TPA-treated MCF-7 lines; cited from earlier work
[8] = tested on: normal breast cells; conditions: background statement; cited from earlier work
[9] = tested on: MCF-7 cells; conditions: background statement; cited from earlier work
[10] = tested on: LIV21; experiment: Cell fractionation, LIV21 expression profile in cytoplasm and nuclear fraction; format: cell-based, human; conditions: cultures treated with peptide at 2 μM compared with TPA-treated cultures
Description: The study of the specific role of the PKC epsilon on the nuclear translocation of Liv 21F can use a peptide which inhibits function PKC epsilon and the translocation like previously described but also according to the protocol of reference of Si RNA of PKC epsilon. The profile of expression observed corresponds to a doublet of tapes in the cytoplasm with approximately 51 KD (and with a tape of 64 kD according to the siRNA used) whereas it corresponds only to one simple tape with 50 kD in the nuclear fraction.

[11] = tested on: estrogen receptors (ERs); conditions: MCF-7 cells, background statement; cited from earlier work
[12] = tested on: PKCzeta (PKCζ); experiment: Western blotting of PKCzeta expression (internal control) under TPA treatment; format: cell-based, human
Description: as §2

[13] = tested on: LIV21; experiment: Fluorescence localization of LIV21 in nuclei during TPA treatment; format: cell-based, human; conditions: TPA 25 nM, after 12 h
Description: as §1

[14] = tested on: TGF Béta; conditions: publication of Lecanda and Gold, March 2009; cited from earlier work
[15] = tested on: LIV21; experiment: Immunocytochemistry of the nuclear translocation of LIV21; format: cell-based, human; conditions: peptide 2 μM, 12 h, compared with TPA 25 nM
Description: To determine the specific action of PKCε on the translocation of LIV21, the crops were discussed with a peptide, selective antagonist of the function and translocation of this PKC (EAVSLKPT (SEQ ID No 6), and the results were compared with those obtained by processing with TP A. This peptide is recognized by the enzyme and links themselves as a substrate amended to the level of its catalytic site. Not phosphorylable, he acts as a specific inhibitor of the activity of PKCε.
The effect of the selective inhibition of the activity of PKCε on the nuclear translocation of LIV21 was studied by immunocytochemistry.

[16] = biological target: T2, PKC (Homo sapiens, UniProt Q02156); conditions: PKC-specific inhibitory peptide; cited from earlier work
T2 construct: endogenous in cells; host or cells: MCF-7
T2 sequence (Q02156 1-737): T1 sequence (Q02156 1-737)

Molecule	p130 localization [1]	proliferation of the cells of benign tumors [2]	E2F4 localization ([3]; after 12 h)	E2F4 localization ([3]; after 48 h)	E2F4 localization ([3]; at 72 h)	translocation of protein kinases C (PKCs) from the cytosol to the membranes [4]	cancerous proliferation ([5]; TPA-treated MCF-7 lines)	cell differentiation ([5]; TPA-treated MCF-7 lines)	proliferation of the cells of human mammary tumor lines such as the MCF-7 line ([5]; background statement)	PKCε expression [6]	LIV21 localization [7]	growth of normal breast cells [8]	migratory capacity of MCF-7 cells in vitro [9]	LIV21 expression profile [10]	expression and function of estrogen receptors (ERs) [11]	expression of PKCzeta (PKCζ) [12]	LIV21 localization [13]	TGF Béta events (increase and nuclear accumulation of p27 via smad 2 and smad 3) [14]	nuclear translocation of LIV21 [15]	PKC activity versus expression [16]
CCCCCCCCCCCCCC(=O)O[C@@H]1[C@@H](C)[C@@]2(O)[C@@H](C=C(CO)C[C@]3(O)C(=O)C(C)=C[C@@H]23)[C@H]2C(C)(C)[C@]12OC(C)=O [TPA, 12-0-tetradecanoyl phorbol-13-10 sumoate]	intranuclear green fluorescence signals	does not modify the proliferation	intranuclear green fluorescence signals	comparable localization	disappears from the nucleus	induces the time- and dose-dependent translocation	inhibition of cancerous proliferation	cell differentiation	drastically inhibits the proliferation	decreases from 30 min	translocated into the nucleus	activates the growth	increases the migratory capacity	doublet in the cytoplasm and of a single band in the nuclear fraction	greatly and rapidly inhibits	not sensitive	intranuclear green fluorescence signals			
Fc1ccc(Cl)cc1-c1nc(Nc2ccncc2)c2nccnc2n1 [SD208]																		All these events are locked		
EAVSLKPT [PKC inhibiting peptide]														doublet in the cytoplasm and of a single band in the nuclear fraction					effect identical to that of TPA	it was the activity and not the expression of PKC which was inhibited

From patent US10718029B2, “Treatment targeting oncology and neurodegeneration” (priority 2008, dated 2020)
